Here are results for 32 compounds from US9862713B2, “Substituted bicyclic heteroaryl compounds as RXR agonists” (CONNEXIOS LIFE SCIENCES PVT. LTD., priority 2014, dated 2018).

The first test relates to hRXR α, β, or γ. The test is described as follows: Transactivation assay (RARE-Luc dual luciferase reporter in HEK-293 cells), activity relative to LG268. Type of test: cell-based, human. Conditions: compound at 300 nM, 24 h; luciferase activity expressed relative to LG268. The method, then: HEK-293 cells (ATCC) were seeded one day prior to transfection. For assessing EC50 of activation of RXR isoforms 2 μg of hRXR α, β, or γ (OriGENE, USA) over-expressing vector, 1 μg of plasmid expressing firefly luciferase under RARE element (RARE-Luc) and 25 ng of renilla luciferase vector (QIAGEN, USA) were co-transfected using lipofectamine reagent. Post 24 h of transfection, cells were treated with different concentrations of RXR agonists (100 nM, 300 nM and 1 uM) for 24 h followed by estimation of luciferase activity using Dual Luciferase Reporter Assay System (Promega). Luciferase activity was normalized to that of renilla luciferase. The activities of the RXR compounds were expressed relative to LG268, a known RXR agonist.
(In general: In a reporter assay the amount or activity of a reporter protein is the signal.)
On to `CC1(C)CCC(C)(C)c2sc(Oc3ccc(C(=O)O)cc3)nc21` [Compound 46, 4-[(4,4,7,7-Tetramethyl-4,5,6,7-tetrahydro-1,3-benzothiazol-2-yl)oxy]benzoic acid], for which the “Activity at 300 nM” value is “** (>0.3 and <0.4)”.

The test is the same for the next values; noted with them: compound at 1 µM, 24 h; luciferase activity expressed relative to LG268.
For `COc1ccc(/C=C/C(=O)O)cc1-c1sc2c(c1C)C(C)(C)CCC2(C)C` [Compound 15, (2E)-3-[4-Methoxy-3-(3,4,4,7,7-pentamethyl-4,5,6,7-tetrahydro-1-benzothiophen-2-yl)phenyl]prop-2-enoic acid], the “Activity at 1 µM” value was “** (>0.7 and <0.8)”.

With `COc1ccc(C2CC2C(=O)O)cc1-c1sc2c(c1C)C(C)(C)CCC2(C)C` (stereo not drawn) [Compound 16, 2-[4-Methoxy-3-(3,4,4,7,7-pentamethyl-4,5,6,7-tetrahydro-1-benzothiophen-2-yl)phenyl]cyclopropanecarboxylic acid], the “Activity at 1 µM” value is “* (<0.7)”.

`Cc1c(N(C)c2ccc(C(=O)O)cn2)sc2c1C(C)(C)CCC2(C)C` [Compound 17, 6-[Methyl(3,4,4,7,7-pentamethyl-4,5,6,7-tetrahydro-1-benzothiophen-2-yl)amino]pyridine-3-carboxylic acid]: the “Activity at 1 µM” value is “***** (>1)”.

On to `CCN(c1ccc(C(=O)O)cn1)c1sc2c(c1C)C(C)(C)CCC2(C)C` [Compound 18, 6-[Ethyl(3,4,4,7,7-pentamethyl-4,5,6,7-tetrahydro-1-benzothiophen-2-yl)amino]pyridine-3-carboxylic acid], for which the “Activity at 1 µM” value is “***** (>1)”.

For `Cc1c(N(c2ccc(C(=O)O)cn2)C2CC2)sc2c1C(C)(C)CCC2(C)C` [Compound 19, 6-[Cyclopropyl(3,4,4,7,7-pentamethyl-4,5,6,7-tetrahydro-1-benzothiophen-2-yl)amino]pyridine-3-carboxylic acid], the “Activity at 1 µM” value is given as “***** (>1)”.

For `Cc1c(N(CC2CC2)c2ccc(C(=O)O)cn2)sc2c1C(C)(C)CCC2(C)C` [Compound 20, 6-[(Cyclopropylmethyl) (3,4,4,7,7-pentamethyl-4,5,6,7-tetrahydro-1-benzothiophen-2-yl)amino]pyridine-3-carboxylic acid], the “Activity at 1 µM” value was “***** (>1)”.

Turning to `Cc1c(N(c2ccc(C(=O)O)cn2)C(C)C)sc2c1C(C)(C)CCC2(C)C` [Compound 21, 6-[(3,4,4,7,7-Pentamethyl-4,5,6,7-tetrahydro-1-benzothiophen-2-yl) (propan-2-yl)amino]pyridine-3-carboxylic acid], the “Activity at 1 µM” value is on record as “***** (>1)”.

Regarding `Cc1c(N(c2ccc(C(=O)O)cn2)S(C)(=O)=O)sc2c1C(C)(C)CCC2(C)C` [Compound 22, 6-[(Methylsulfonyl) (3,4,4,7,7-pentamethyl-4,5,6,7-tetrahydro-1-benzothiophen-2-yl)amino]pyridine-3-carboxylic acid], the “Activity at 1 µM” value is given as “***** (>1)”.

Turning to `Cc1c(N(C)c2ncc(C(=O)O)cn2)sc2c1C(C)(C)CCC2(C)C` [Compound 23, 2-[Methyl(3,4,4,7,7-pentamethyl-4,5,6,7-tetrahydro-1-benzothiophen-2-yl)amino]pyrimidine-5-carboxylic acid], the “Activity at 1 µM” value was “*** (>0.8 and <0.9)”.

With `Cc1c(N(c2ncc(C(=O)O)cn2)C2CC2)sc2c1C(C)(C)CCC2(C)C` [Compound 24, 2-[Cyclopropyl(3,4,4,7,7-pentamethyl-4,5,6,7-tetrahydro-1-benzothiophen-2-yl)amino]pyrimidine-5-carboxylic acid], the “Activity at 1 µM” value is “*** (>0.8 and <0.9)”.

For the compound `Cc1c(NC(=O)c2ccc(C(=O)O)cc2)sc2c1C(C)(C)CCC2(C)C` [Compound 25, 4-[(3,4,4,7,7-Pentamethyl-4,5,6,7-tetrahydro-1-benzothiophen-2-yl)carbamoyl]benzoic acid], the “Activity at 1 µM” value was “* (<0.7)”.

Consider `Cc1c(N(C)c2ccc(C(=O)O)cn2)sc2c1C(C)(C)CCC2` [Compound 26, 6-[Methyl(3,4,4-trimethyl-4,5,6,7-tetrahydro-1-benzothiophen-2-yl)amino]pyridine-3-carboxylic acid], for which the “Activity at 1 µM” value was “* (<0.7)”.

On to `CCN(c1ccc(C(=O)O)cc1)c1cc2c(s1)C(C)(C)CCC2(C)C` [Compound 27, 4-[Ethyl(4,4,7,7-tetramethyl-4,5,6,7-tetrahydro-1-benzothiophen-2-yl)amino]benzoic acid], for which the “Activity at 1 µM” value was “***** (>1)”.

On to `Cc1c(-n2nnc3cc(C(=O)O)ccc32)sc2c1C(C)(C)CCC2(C)C` [Compound 28, 1-(3,4,4,7,7-Pentamethyl-4,5,6,7-tetrahydro-1-benzothiophen-2-yl)-1H-benzotriazole-5-carboxylic acid], for which the “Activity at 1 µM” value was “* (<0.7)”.

Consider `Cc1c(/C=C/c2ccc(C(=O)O)cc2)sc2c1C(C)(C)CCC2(C)C` [Compound 29, 4-[(E)-2-(3,4,4,7,7-Pentamethyl-4,5,6,7-tetrahydro-1-benzothiophen-2-yl)ethenyl]benzoic acid], for which the “Activity at 1 µM” value was “***** (>1)”.

On to `Cc1c(/C=C\c2ccc(C(=O)O)cc2)sc2c1C(C)(C)CCC2(C)C` [Compound 30, 4-[(Z)-2-(3,4,4,7,7-Pentamethyl-4,5,6,7-tetrahydro-1-benzothiophen-2-yl)ethenyl]benzoic acid], for which the “Activity at 1 µM” value was “***** (>1)”.

`Cc1c(C2CC2c2ccc(C(=O)O)cc2)sc2c1C(C)(C)CCC2(C)C` (stereo not drawn) [Compound 31, 4-[2-(3,4,4,7,7-Pentamethyl-4,5,6,7-tetrahydro-1-benzothiophen-2-yl)cyclopropyl]benzoic acid]: the “Activity at 1 µM” value was “** (>0.7 and <0.8)”.

Consider `CCn1c(-c2ccc(C(=O)O)cc2)ccc1-c1sc2c(c1C)C(C)(C)CCC2(C)C` [Compound 32, 4-[1-Ethyl-5-(3,4,4,7,7-pentamethyl-4,5,6,7-tetrahydro-1-benzothiophen-2-yl)-1H-pyrrol-2-yl]benzoic acid], for which the “Activity at 1 µM” value is recorded as “* (<0.7)”.

As to `CN(c1ccc(C(=O)O)cc1)c1nc2c(s1)C(C)(C)CCC2(C)C` [Compound 33, 4-[Methyl(4,4,7,7-tetramethyl-4,5,6,7-tetrahydro-1,3-benzothiazol-2-yl)amino]benzoic acid], the “Activity at 1 µM” value is “*** (>0.8 and <0.9)”.

For `CN(c1ccc(C(=O)O)cc1)c1nc2c(s1)C(C)(C)C=CC2(C)C` [Compound 34, 4-[Methyl(4,4,7,7-tetramethyl-4,7-dihydro-1,3-benzothiazol-2-yl)amino]benzoic acid], the “Activity at 1 µM” value is “** (>0.7 and <0.8)”.

Take `CCOC1CC(C)(C)c2sc(N(C)c3ccc(C(=O)O)cc3)nc2C1(C)C` (stereo not drawn) [Compound 35, 4-[(5-Ethoxy-4,4,7,7-tetramethyl-4,5,6,7-tetrahydro-1,3-benzothiazol-2-yl)(methyl)amino]benzoic acid]: the “Activity at 1 µM” value is “*** (>0.8 and <0.9)”.

Take `CC1(C)CCC(C)(C)c2sc(N(c3ccc(C(=O)O)cc3)C3CC3)nc21` [Compound 36, 4-[Cyclopropyl(4,4,7,7-tetramethyl-4,5,6,7-tetrahydro-1,3-benzothiazol-2-yl)amino]benzoic acid]: the “Activity at 1 µM” value is reported as “***** (>1)”.

As to `CC1(C)CCC(C)(C)c2sc(N(c3ccc(C(=O)O)cn3)C3CC3)nc21` [Compound 37, 6-[Cyclopropyl(4,4,7,7-tetramethyl-4,5,6,7-tetrahydro-1,3-benzothiazol-2-yl)amino]pyridine-3-carboxylic acid], the “Activity at 1 µM” value is on record as “***** (>1)”.

In the case of `CC1(C)CCC(C)(C)c2sc(N(CC3CC3)c3ccc(C(=O)O)cc3)nc21` [Compound 38, 4-[(Cyclopropylmethyl) (4,4,7,7-tetramethyl-4,5,6,7-tetrahydro-1,3-benzothiazol-2-yl)amino]benzoic acid], the “Activity at 1 µM” value is “*** (>0.8 and <0.9)”.

Take `CCN(c1ccc(C(=O)O)cn1)c1nc2c(s1)C(C)(C)CCC2(C)C` [Compound 39, 6-[Ethyl(4,4,7,7-tetramethyl-4,5,6,7-tetrahydro-1,3-benzothiazol-2-yl)amino]pyridine-3-carboxylic acid]: the “Activity at 1 µM” value is on record as “***** (>1)”.

`CCN(c1ccc(C(=O)O)cn1)c1nc2c(s1)C(C)(C)CC(=O)C2(C)C` [Compound 41, 6-[Ethyl(4,4,7,7-tetramethyl-5-oxo-4,5,6,7-tetrahydro-1,3-benzothiazol-2-yl)amino]pyridine-3-carboxylic acid]: the “Activity at 1 µM” value is “* (<0.7)”.

For the compound `CCN(c1ncc(C(=O)O)cn1)c1nc2c(s1)C(C)(C)CCC2(C)C` [Compound 42, 2-[Ethyl(4,4,7,7-tetramethyl-4,5,6,7-tetrahydro-1,3-benzothiazol-2-yl)amino]pyrimidine-5-carboxylic acid], the “Activity at 1 µM” value was “** (>0.7 and <0.8)”.

Take `CC1(C)CCC(C)(C)c2sc(N(CC3CC3)c3ncc(C(=O)O)cn3)nc21` [Compound 43, 2-[(Cyclopropylmethyl) (4,4,7,7-tetramethyl-4,5,6,7-tetrahydro-1,3-benzothiazol-2-yl)amino]pyrimidine-5-carboxylic acid]: the “Activity at 1 µM” value is on record as “* (<0.7)”.

Regarding `Cc1nc2cc(C(=O)O)ccc2n1-c1nc2c(s1)C(C)(C)CCC2(C)C` [Compound 44, 2-Methyl-1-(4,4,7,7-tetramethyl-4,5,6,7-tetrahydro-1,3-benzothiazol-2-yl)-1H-benzimidazole-5-carboxylic acid], the “Activity at 1 µM” value is listed as “* (<0.7)”.

Turning to `CC1(C)CCC(C)(C)c2sc(-n3nnc4cc(C(=O)O)ccc43)nc21` [Compound 45, 1-(4,4,7,7-Tetramethyl-4,5,6,7-tetrahydro-1,3-benzothiazol-2-yl)-1H-benzotriazole-5-carboxylic acid], the “Activity at 1 µM” value is given as “* (<0.7)”.

In the case of `CC1(C)CCC(C)(C)c2sc(Oc3ccc(C(=O)O)cc3)nc21` [Compound 46, 4-[(4,4,7,7-Tetramethyl-4,5,6,7-tetrahydro-1,3-benzothiazol-2-yl)oxy]benzoic acid], the “Activity at 1 µM” value was “* (<0.7)”.

For `CC1(C)CCC(C)(C)c2sc(C(=O)c3ccc(C(=O)O)cc3)nc21` [Compound 47, 4-[(4,4,7,7-Tetramethyl-4,5,6,7-tetrahydro-1,3-benzothiazol-2-yl)carbonyl]benzoic acid], the “Activity at 1 µM” value is “* (<0.7)”.
